Marks after values point to notes of the source that are not given here.
Tests used:
[1] = system: syngenic and UKU181 transgenic mice; test: Plasma α-amylase and ALAT in syngenic and transgenic mice after analogue injection; format: in vivo, mouse
Description: α-methylspermidine, Bis-α-methylspermine and α-methylspermine were administered in saline. […] The data are expressed as means ±S.D. For statistical analysis, the two-tailed Student's t test was used.

[2] = system: rats; test: Toxicity of spermine derivatives in rats (deaths); format: in vivo, rat; settings: 50 mg/kg twice/24 h
Source text: It is likely to be the case with the methylated analogues as well.

[3] = system: syngenic and transgenic rats; test: Hepatic SSAT activity and polyamine pools after partial hepatectomy; format: in vivo, rat; settings: for Me-Spd (liver) / Put (liver) / Spd (liver) / Spm (liver): 24 h regenerating liver
Source text: FIGS. 4a–4d. Hepatic polyamine pools in syngenic and transgenic rats after partial hepatectomy and methylspermidine. […] Three to five animals in each group. Me-spd, methylspermidine.
(§1) The production of transgenic Wistar rats (UKUR30) and mice (UKU181) harboring metallothionein-SSAT fusion gene (Suppola, S., Pietilä, M., Parkkinen, J. J., Korhonen, V. P., Alhonen, L., Halmekytö, M., Porter, C. W., and Jänne, J. (1999) Biochem. J. 338, 311–316) has been described earlier (Alhonen, L., Parkkinen, J. J., Keinänen, T., Sinervirta, R., Herzig, K. H., and Jänne, J. (2000) Proc. Natl. Acad. Sci. U.S.A. 97, 8290–8295; Lukkarinen, J., Gröhn, O., Sinervirta, R., Järvinen, A., Kauppinen, R. A., Jänne, J., and Alhonen, L. (1997) Stroke 28, 639–645). Partial hepatectomy was carried out according to the original method of Higgins and Anderson (Higgins, G. H., and Anderson, R. M. (1931) Arch. Pathol. 12, 186–202). Treatments before partial hepatectomy and the determination of DNA synthesis were carried out as in (Räsänen, T. L., Alhonen, L., Sinervirta, R., Keinänen, T., Herzig, K. H., Suppola, S., Khomutov, A. R., Vepsäläinen, J., and Jänne, J. (2002) J. Biol. Chem. 277, 39867–39872). […] The animals were sacrificed 24 h after the second MDL72527 injection and liver pieces were frozen in liquid nitrogen, homogenized in buffer (25 mM Tris-HCl pH 7.4, 0.1 mM EDTA, 1 mM DTT). An aliquot of the homogenates was used for the polyamine assays. The homogenates were centrifuged (at 13 000×g, for 30 min, at 4° C.) and the supernatants were used for the enzyme activity assays. The Institutional Animal Care and Use Committee of the University of Kuopio and by the Provincial Government approved animal experiments.
FIG. 4 depicts polyamine concentrations in syngenic and transgenic rats at 24 h after partial hepatectomy. […] This in all likelihood reflected the enhanced SSAT activity. […] In transgenic animals, the low spermidine pool was further decreased in response to the operation (FIG. 4c).
Liver regeneration could be restored by a prior administration of α-methylspermidine (Räsänen, T. L., Alhonen, L., Sinervirta, R., Keinänen, T., Herzig, K. H., Suppola, S., Khomutov, A. R., Vepsäläinen, J., and Jänne, J. (2002) J. Biol. Chem. 277, 39867–39872). FIG. 10. depicts thymidine incorporation in livers of transgenic rats before and 24 h after partial hepatectomy. […] Table 3 lists the liver pools of polyamines and their analogues before and after partial hepatectomy. […] The analogues were readily accumulated in the livers.

[4] = system: syngenic and transgenic rats; test: Liver regeneration after partial hepatectomy (liver weight, PCNA labeling index, thymidine incorporation); format: in vivo, rat; settings: for PCNA-positive hepatocytes: repeated experiment
Description: FIGS. 5a–5b. Liver weight (FIG. 5a) and PCNA labeling index (FIG. 5b) in syngenic and transgenic rats after partial hepatectomy and methylspermidine. Three to five animals in each group. *p<0.05, ***p<0.001 as compared with preoperative values. Md-spd, methylspermidine.
FIG. 10. Effect of polyamine analogues on thymidine incorporation in 24-h regenerating livers of SSAT transgenic rats. […] Ten μCi of tritiated thymidine was given 30 min before sacrifice. Three to four animals in each group.
as §1
PCNA was detected from formalin-fixed paraffin-embedded tissue section as described in detail earlier (Alhonen, L., Räsänen, T. L., Sinervirta, R., Parkkinen, J. J., Korhonen, V. P., Pietilä, M., and Jänne, J. (2002) Biochem. J. 362, 149–15).
PCNA was used as an indicator of proliferative activity during liver regeneration. Immunohistochemical detection of PCNA is a convenient and commonly used method to grade proliferative activity in various tissues. PCNA expression is closely correlated with the S-phase of the cell cycle (17). FIG. 5b depicts PCNA labeling index before partial hepatectomy and at 24 h postoperatively in syngenic and transgenic rats without or with methylspermidine treatment. In resting liver, only about 1% of the hepatocytes were PCNA-positive. In syngenic animals, the number of PCNA-positive cells increased sharply to over 30% at 24 h after the operation whereas in transgenic animals the number of positive cells remained at the low preoperative level at this time point (FIG. 5b). […] The experiment was repeated with other groups of syngenic and transgenic rats. In this experiment, PCNA-positive hepatocytes accounted for 0.5±0.1% in resting syngenic liver. The number of positive cells rose to 10.7±3.5% at 24 h postoperatively without the analogue (p<0.001) and to 9.8±1.5% with the analogue (p<0.001). The corresponding figures for the transgenic animals were 0.20±0.0 before the operation, 0.42±0.24% at 24 h postoperatively without methylspermidine and 25.9±4.9% with methylspermidine (p<0.001). It thus appears that the analogue completely reversed the proliferative block in transgenic livers.
Liver regeneration could be restored by a prior administration of α-methylspermidine (Räsänen, T. L., Alhonen, L., Sinervirta, R., Keinänen, T., Herzig, K. H., Suppola, S., Khomutov, A. R., Vepsäläinen, J., and Jänne, J. (2002) J. Biol. Chem. 277, 39867–39872). […]

[5] = Sg (syngenic) mice, 12.5 mg/kg, 24 h before sacrifice
[6] = Sg (syngenic) mice, 25 mg/kg, 24 h before sacrifice
[7] = Sg (syngenic) mice, 37.5 mg/kg, 24 h before sacrifice
[8] = Sg (syngenic) mice, 50 mg/kg, 24 h before sacrifice
[9] = Tg (transgenic) mice, 12.5 mg/kg, 24 h before sacrifice
[10] = Tg (transgenic) mice, 25 mg/kg, 24 h before sacrifice
[11] = Tg (transgenic) mice, 37.5 mg/kg, 24 h before sacrifice
[12] = Tg (transgenic) mice, 50 mg/kg, 24 h before sacrifice
[13] = transgenic rats, 5 mg/kg 20 and 4 h before operation
[14] = transgenic rats, 25 mg/kg 20 and 4 h before operation

For `CC(N)CCNCCCCNCCCN` (stereo not drawn) [α-methylspermine, 1-methylspermine], the “Plasma ALAT” value [1, 5] was 54.33 ± 4.16 U/dm^3, the “Plasma α-amylase” value [1, 5] was 2352.00 ± 206.37 U/dm^3 and the “Plasma ALAT” value [1, 6] was 43.67 ± 4.04 U/dm^3. For the same molecule, the “Plasma α-amylase” value [1, 6] was 2645.67 ± 161.87 ^+ U/dm^3, the “Plasma ALAT” value [1, 7] was 47.67 ± 13.43 U/dm^3 and the “Plasma α-amylase” value [1, 7] was 2610.67 ± 144.67 U/dm^3. The “Plasma ALAT” value [1, 8] was 49.00 ± 2.83 U/dm^3, the “Plasma α-amylase” value [1, 8] was 2512.33 ± 275.71 U/dm^3 and the “Plasma ALAT” value [1, 9] was 58.67 ± 7.77 U/dm^3. The “Plasma α-amylase” value [1, 9] was 2675.67 ± 305.64 U/dm^3, the “Plasma ALAT” value [1, 10] was 44.67 ± 5.69 U/dm^3 and the “Plasma α-amylase” value [1, 10] was 2044.67 ± 112.93 U/dm^3. For the same molecule, the “Plasma ALAT” value [1, 11] was 37.00 ± 2.83 U/dm^3, the “Plasma α-amylase” value [1, 11] was 2450.00 ± 410.12 U/dm^3 and the “Plasma ALAT” value [1, 12] was 41.33 ± 3.79 U/dm^3. For the same molecule, the “Plasma α-amylase” value [1, 12] was 2667.00 ± 297.24 U/dm^3 and the deaths [2] was “a number of rats died”.
In the case of `CC(N)CCNCCCCN` (stereo not drawn) [α-methylspermidine, 1-methylspermidine], the “hepatic spermidine and spermine concentrations” value ([3]; 24 h after partial hepatectomy, 50 mg/kg 3 h before) is reported as “little effect on hepatic spermidine and spermine concentrations”, the “accumulation of the analogue in liver” value ([3]; normal and transgenic rats, 50 mg/kg 3 h before partial hepatectomy) is reported as “effectively accumulated in normal and transgenic liver” and the hepatic putrescine pool ([3]; transgenic rats, 24 h after partial hepatectomy, 50 mg/kg 3 h before) is reported as “strikingly increased in response to the analogue”. The “Me-Spd (liver)” value [3, 13] was 462 ± 41 pmoles/mg tissue wet weight, the “Put (liver)” value [3, 13] was 4540 ± 690^a pmoles/mg tissue wet weight and the “Spd (liver)” value [3, 13] was 183 ± 47^a pmoles/mg tissue wet weight. The “Spm (liver)” value [3, 13] was 18 ± 5^a pmoles/mg tissue wet weight, the “Me-Spd (liver)” value [3, 14] was 864 ± 166 pmoles/mg tissue wet weight and the “Put (liver)” value [3, 14] was 3570 ± 596^a pmoles/mg tissue wet weight. The “Spd (liver)” value [3, 14] was 281 ± 107^a pmoles/mg tissue wet weight, the “Spm (liver)” value [3, 14] was 40 ± 24^a pmoles/mg tissue wet weight and the “hepatic SSAT activity” value ([3]; transgenic rats, single dose 3 h prior to partial hepatectomy, 24 h postoperatively) was 7520±3000 pmol/mg/10 min. The “thymidine incorporation (DNA synthesis)” value ([4]; SSAT transgenic rats, 24 h after partial hepatectomy, 5 mg/kg 20 h and 4 h before) was “only insignificantly increased DNA synthesis”, the “stimulation of DNA synthesis (thymidine incorporation)” value ([4]; SSAT transgenic rats, 24 h after partial hepatectomy, 25 mg/kg 20 h and 4 h before) was “about 10 fold” and the liver weight gain ([4]; non-transgenic rats, 24 h after partial hepatectomy) was “no effect on the weight gain”. The PCNA-positive hepatocytes ([4]; syngenic rats, 24 h postoperatively with the analogue) was 9.8±1.5%, the PCNA-positive hepatocytes ([4]; transgenic rats, 24 h postoperatively with methylspermidine) was 25.9±4.9% and the PCNA labeling index ([4]; syngenic livers, 24 h after partial hepatectomy) was “did not change PCNA labeling index”. For the same molecule, the PCNA-positive cells ([4]; transgenic liver, 24 h after partial hepatectomy, from about 1%) was “more than 40%”, the liver weight ([4]; transgenic rats, 24 h after partial hepatectomy) was “significantly increased the organ weight” and the “Plasma ALAT” value ([1]; Sg mice, 50 mg/kg, 24 h) was 17.90 U/dm^3. The “Plasma α-amylase” value ([1]; Sg mice, 50 mg/kg, 24 h, not corrected constant) was 266.76 ± 23.00 ^+ U/dm^3, the “Plasma ALAT” value ([1]; Sg mice, 100 mg/kg, 24 h) was 19.21 U/dm^3 and the “Plasma α-amylase” value ([1]; Sg mice, 100 mg/kg, 24 h, not corrected constant) was 281.81 ± 24.11 U/dm^3. The “Plasma ALAT” value ([1]; Sg mice, 150 mg/kg, 24 h) was 18.33 U/dm^3, the “Plasma α-amylase” value ([1]; Sg mice, 150 mg/kg, 24 h, not corrected constant) was 284.83 ± 26.90 U/dm^3 and the “Plasma ALAT” value ([1]; Sg mice, 250 mg/kg, 24 h) was 66.00 U/dm^3. The “Plasma α-amylase” value ([1]; Sg mice, 250 mg/kg, 24 h, not corrected constant) was 287.41 ± 74.99 U/dm^3, the “Plasma ALAT” value ([1]; Sg mice, 375 mg/kg, 24 h) was 111.39 U/dm^3 and the “Plasma α-amylase” value ([1]; Sg mice, 375 mg/kg, 24 h, not corrected constant) was 654.32 ± 402.95 U/dm^3. The “Plasma ALAT” value ([1]; Sg mice, 500 mg/kg, 24 h) was 32.74 U/dm^3, the “Plasma α-amylase” value ([1]; Sg mice, 500 mg/kg, 24 h, not corrected constant) was 370.45 ± 104.58 U/dm^3 and the “Plasma ALAT” value ([1]; Tg mice, 50 mg/kg, 24 h) was 34.92 U/dm^3. For the same molecule, the “Plasma α-amylase” value ([1]; Tg mice, 50 mg/kg, 24 h, not corrected constant) was 341.62 ± 44.99 U/dm^3, the “Plasma ALAT” value ([1]; Tg mice, 100 mg/kg, 24 h) was 44.96 U/dm^3 and the “Plasma α-amylase” value ([1]; Tg mice, 100 mg/kg, 24 h, not corrected constant) was 302.90 ± 29.54 U/dm^3. The “Plasma ALAT” value ([1]; Tg mice, 150 mg/kg, 24 h) was 41.90 U/dm^3, the “Plasma α-amylase” value ([1]; Tg mice, 150 mg/kg, 24 h, not corrected constant) was 275.79 ± 34.37 U/dm^3 and the “Plasma ALAT” value ([1]; Tg mice, 250 mg/kg, 24 h) was 34.05 U/dm^3. For the same molecule, the “Plasma α-amylase” value ([1]; Tg mice, 250 mg/kg, 24 h, not corrected constant) was 389.38 ± 213.31 U/dm^3, the “Plasma ALAT” value ([1]; Tg mice, 375 mg/kg, 24 h) was 52.38 U/dm^3 and the “Plasma α-amylase” value ([1]; Tg mice, 375 mg/kg, 24 h, not corrected constant) was 314.51 ± 20.72 U/dm^3.

From US7202280B2, “Methods for the treatment and prevention of pancreatitis and for induction of liver regeneration” (priority 2002, dated 2007)
